# Experimental data: patent US12404249B2, “Heterocyclic derivatives and use thereof” (C&C RESEARCH LABORATORIES, priority 2018, dated 2025)
# Legend:
# STAT3 = target: T1, STAT3 (Homo sapiens, UniProt P40763); assay: STAT3 activation inhibition assay (reporter gene assay, LNcaP stable cell line, IL-6 stimulated); assay type: cell-based; details: LNcaP stable cell line [plasmid STAT3-TA-luc], IL-6 10 ng/mL, 48 hours, luciferase activity; read-out: IC50 (μM) pSTAT3
# T1 construct: endogenous in cells; host or cells: LNCaP (human prostate cancer) stably carrying pSTAT3-TA-luc reporter plasmid
# T1 sequence (P40763 whole entry): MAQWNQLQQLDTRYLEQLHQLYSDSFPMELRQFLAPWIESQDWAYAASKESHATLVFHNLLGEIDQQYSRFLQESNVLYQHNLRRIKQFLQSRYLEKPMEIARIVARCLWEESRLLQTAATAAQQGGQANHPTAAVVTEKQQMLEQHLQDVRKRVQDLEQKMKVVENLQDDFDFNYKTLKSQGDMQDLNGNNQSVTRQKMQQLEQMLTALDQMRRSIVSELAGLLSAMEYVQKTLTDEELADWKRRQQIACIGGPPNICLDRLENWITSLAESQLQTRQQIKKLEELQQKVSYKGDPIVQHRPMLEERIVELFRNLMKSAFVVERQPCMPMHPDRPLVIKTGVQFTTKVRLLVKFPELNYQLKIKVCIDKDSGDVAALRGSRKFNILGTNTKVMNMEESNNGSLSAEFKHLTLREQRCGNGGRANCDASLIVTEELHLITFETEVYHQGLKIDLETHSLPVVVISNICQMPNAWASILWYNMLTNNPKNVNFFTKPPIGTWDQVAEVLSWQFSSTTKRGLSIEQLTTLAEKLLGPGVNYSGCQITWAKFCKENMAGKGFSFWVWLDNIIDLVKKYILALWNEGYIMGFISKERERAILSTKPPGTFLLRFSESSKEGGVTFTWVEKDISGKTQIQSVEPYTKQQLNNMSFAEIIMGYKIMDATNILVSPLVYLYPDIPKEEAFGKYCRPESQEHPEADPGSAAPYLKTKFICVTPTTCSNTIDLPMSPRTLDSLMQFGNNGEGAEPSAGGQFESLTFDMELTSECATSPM
# Experimental: Cancer cell lines used for evaluating the compounds of the Examples were purchased from ATCC (American Type Culture Collection) or KCLB (Korean Cell Line Bank), and cultured according to the vendor's recommendation. The human prostate cancer cell line stably expressing the STAT3 promoter (LNcaP stable cell line [plasmid STAT3-TA-luc])—which was prepared to evaluate the inhibitory effect of the compounds of the Examples against dimerization of STAT3—was cultured in RPMI1640 (Cat no. 11875, Gibco), 10% fetal bovine serum (Cat no. SH30071.03, Hyclone) and 150 μg/mL G418 solution (Cat no. 04 727 894 001, Roche).
# The reporter gene assay of LNcap stable cell line was carried out by the use of RPMI 1640 medium containing 3% DCC-FBS (without G-418). The cell line was dispensed into two (2) white 96-well plates at 30,000 cells/well/50 μL. The cell line was incubated for 24 hours under the condition of 37° C. and 5% CO2, and then the Example compounds of 50 mM DMSO stock were diluted to various concentrations and treated to two (2) white 96-well plates containing cells. Then, IL-6 was treated to a final concentration of 10 ng/mL. After the treatment of Example compounds and IL-6, the cells were cultured for 48 hours under the condition of 37° C. and 5% CO2. After 48 hours, the 96-well plates were observed under a microscope to record the presence or absence of drug precipitation and specificities, and the 96-well plates were kept at room temperature for 30 minutes. Then, in the case of the first 96-well plate, the culture medium on the plate was removed to measure the luciferase activity, and treated with passive lysis buffer at 20 µL/well and shaken for 30 minutes. The luciferase activity was measured on microLUMA LB96P (BERTHOLD) or Centro XS LB 960 (BERTHOLD) instrument using Luciferase assay system (Cat No. E1501, Promega Corporation). In the case of the second 96-well plate, 20 μL of Glo-mix solution was added to measure cytotoxicity by the compounds of the Examples, and the plate was well shaken for 10 minutes and analyzed on microLUMA LB96P (BERTHOLD) instrument using Glo-vial protocol. As a negative control, a 96 well-plate in which culture medium was added but cells were not plated was used. As a positive control, a 96 well-plate in which cells were plated and 0.1% DMSO and culture medium containing stimulation were added was used.
# The results of evaluating the inhibitory effects of the compounds of the Examples against dimerization of STAT3 and STAT1 via STAT3 and STAT1 reporter gene assay are represented in Table 1.
# [1] = tested on: prostate cancer cell line (LNCap); assay: Cell growth inhibition assay (Celltiter Glo); assay type: cell-based; details: Homo sapiens, LNCap cells, 120 hours incubation
# Experimental: Cancer cell inhibitory effects by the compounds of the Examples were evaluated as follows. The prostate cancer cell line (LNCap) used was cultured under the condition according to the vendor's recommendation. LNCap was dispensed into a 96-well plate at 10,000 cells/well. After incubation under the condition of 37° C. and 5% CO2 for 24 hours, the Example compounds of 50 mM DMSO stock were diluted to various concentrations and treated to the 96-well plate containing cells. After treatment of the Example compounds, LNCap cells were incubated in an incubator (37° C., 5% CO2) for 120 hours. After each incubation time, the 96-well plate was observed under a microscope to record the presence or absence of drug precipitation and specificities, and the 96-well plate was kept at room temperature for 30 minutes. Then, after addition of 20 μL of Celltiter Glo solution, the 96-well plate was well shaken for 30 minutes. The growth inhibitory activity was measured on microLUMA LB96P (BERTHOLD) instrument using Glo-vial protocol. As a negative control, a 96 well-plate in which culture medium was added but cells were not plated was used. As a positive control, a 96 well-plate in which cells were plated and 0.1% DMSO instead of drugs was added was used. The results of growth inhibitory effects of the Example compounds on prostate cancer cell line are represented in Table 2.
IC50 (STAT3) [µM],IC50 [1] [µM],Structure (SMILES)
> 50,> 50,"O=C(c1ccc2nc(Cl)cc(NCCc3ccc([N+](=O)[O-])cc3)c2c1)N1CCOCC1 [Example 42, (2-chloro-4-((4-nitrophenethyl)amino)quinolin-6-yl)(morpholino)methanone]"
11,14.1,"O=[N+]([O-])c1ccc(CCNc2ncnc3ccc(-c4ccc(Cl)cc4Cl)cc23)cc1 [Example 54, 6-(2,4-dichlorophenyl)-N-(4-nitrophenethyl)quinazolin-4-amine]"
> 50,> 50,"O=C(O)COc1ccc2nc(Cl)cc(NCCc3ccc([N+](=O)[O-])cc3)c2c1 [Example 43, 2-((2-chloro-4-((4-nitrophenethyl)amino)quinolin-6-yl)oxy)acetic acid]"
0.35,0.16,"O=[N+]([O-])c1ccc(C(F)(F)CNc2ncnc3ccccc23)cc1 [Example 59, N-(2,2-difluoro-2-(4-nitrophenyl)ethyl)quinazolin-4-amine]"
3,15.7,"CS(=O)(=O)Nc1ccc(CCNc2nc(C(F)(F)F)nc3ccccc23)cc1 [Example 53, N-(4-(2-((2-(trifluoromethyl)quinazolin-4-yl)amino)ethyl)phenyl)methanesulfonamide]"
13.9,23.1,"O=[N+]([O-])c1ccc(CCNc2nc(F)nc3[nH]cnc23)cc1 [Example 50, 2-fluoro-N-(4-nitrophenethyl)-9H-purin-6-amine]"
2.2,7,"O=[N+]([O-])c1ccc(CCNc2cc(Cl)nc3cc(F)ccc23)cc1 [Example 30, 2-chloro-7-fluoro-N-(4-nitrophenethyl)quinolin-4-amine]"
17.9,8.6,"CS(=O)(=O)Nc1ccc(CCNc2cc(Cl)nc3ccc(-c4ccc(Cl)cc4Cl)cc23)cc1 [Example 57, N-(4-(2-((2-chloro-6-(2,4-dichlorophenyl)quinolin-4-yl)amino)ethyl)phenyl)methanesulfonamide]"
> 50,> 50,"O=[N+]([O-])c1ccc(CCNc2cc(Cl)nc3ccc(-c4ccc(Cl)cc4Cl)cc23)cc1 [Example 55, 2-chloro-6-(2,4-dichlorophenyl)-N-(4-nitrophenethyl)quinolin-4-amine]"
4.4,3.7,"O=[N+]([O-])c1ccc(CCNc2nc(Cl)nc3ncccc23)cc1 [Example 67, 2-chloro-N-(4-nitrophenethyl)pyrido[2,3-d]pyrimidin-4-amine]"
3.1,6.6,"CS(=O)(=O)Nc1ccc(CCNc2cc(C(F)(F)F)nc3ccccc23)cc1 [Example 52, N-(4-(2-((2-(trifluoromethyl)quinolin-4-yl)amino)ethyl)phenyl)methanesulfonamide]"
24.1,27.7,"CNc1cc(NCCc2ccc([N+](=O)[O-])cc2)c2ccccc2n1 [Example 51, N^2-methyl-N^4-(4-nitrophenethyl)quinolin-2,4-diamine 2,2,2-trifluoroacetate]"
6.9,15.7,"O=C(c1ccccc1)c1ccc2nc(Cl)cc(NCCc3ccc([N+](=O)[O-])cc3)c2c1 [Example 34, (2-chloro-4-((4-nitrophenethyl)amino)quinolin-6-yl)(phenyl)methanone]"
> 50,> 50,"O=C(Cc1ccc([N+](=O)[O-])cc1)Nc1ncnc2ccccc12 [Example 65, 2-(4-nitrophenyl)-N-(quinazolin-4-yl)acetamide]"
0.12,0.21,"O=[N+]([O-])c1ccc(CCNc2cc(Cl)nc3c(F)cccc23)cc1 [Example 31, 2-chloro-8-fluoro-N-(4-nitrophenethyl)quinolin-4-amine]"

# More lines, now with the values behind:
Structure (SMILES),IC50 (STAT3) [µM],IC50 [1] [µM]
"COc1ccc2nc(Cl)cc(NCCc3ccc(NS(C)(=O)=O)cc3)c2c1 [Example 11, N-(4-(2-((2-chloro-6-methoxyquinolin-4-yl)amino)ethyl)phenyl)methanesulfonamide]",1.6,2.6
"CS(=O)(=O)Nc1ccc(CCNc2ccnc3ccc(F)cc23)cc1 [Example 21, N-(4-(2-((6-fluoroquinolin-4-yl)amino)ethyl)phenyl)methanesulfonamide]",2.3,2.4
"Cc1cc(NCCc2ccc([N+](=O)[O-])cc2)c2ccccc2n1 [Example 5, 2-methyl-N-(4-nitrophenethyl)quinolin-4-amine]",38.1,47.3
"O=[N+]([O-])c1ccc(CCNc2nc(Cl)nc3ccccc23)cc1 [Example 18, 2-chloro-N-(4-nitrophenethyl)quinazolin-4-amine]",0.21,0.48
"O=[N+]([O-])c1ccc(CCNc2cc(Cl)nc3cc(OC(F)(F)F)ccc23)cc1 [Example 12, 2-chloro-N-(4-nitrophenethyl)-7-(trifluoromethoxy)quinolin-4-amine]",5.8,9.3
"CS(=O)(=O)Nc1ccc(CCNc2nc(Cl)nc3ccccc23)cc1 [Example 23, N-(4-(2-((2-chloroquinazolin-4-yl)amino)ethyl)phenyl)methanesulfonamide]",0.26,0.25
"O=[N+]([O-])c1ccc(CCNc2cc(Cl)nc3ccc(S(=O)(=O)NCCc4ccc([N+](=O)[O-])cc4)cc23)cc1 [Example 19, 2-chloro-N-(4-nitrophenethyl)-4-((4-nitrophenethyl)amino)quinolin-6-sulfonamide]",> 50,18.4
"COc1ccc2nc(Cl)cc(NCCc3ccc([N+](=O)[O-])cc3)c2c1 [Example 9, 2-chloro-6-methoxy-N-(4-nitrophenethyl)quinolin-4-amine]",3,7.7
"CS(=O)(=O)Nc1ccc(CCNc2cc(Cl)nc3ccccc23)cc1 [Example 7, N-(4-(2-((2-chloroquinolin-4-yl)amino)ethyl)phenyl)methanesulfonamide]",0.038,0.078
"CS(=O)(=O)Nc1ccc(CCNc2ccnc3cccc(OC(F)(F)F)c23)cc1 [Example 27, N-(4-(2-((5-(trifluoromethoxy)quinolin-4-yl)amino)ethyl)phenyl)methanesulfonamide]",0.14,0.14
"CS(=O)(=O)Nc1ccc(CCNc2cc(Cl)nc3ccc(F)cc23)cc1 [Example 22, N-(4-(2-((2-chloro-6-fluoroquinolin-4-yl)amino)ethyl)phenyl)methanesulfonamide]",0.1,0.074
"CS(=O)(=O)Nc1ccc(CCNc2cc(Cl)nc3cc(OC(F)(F)F)ccc23)cc1 [Example 24, N-(4-(2-((2-chloro-7-(trifluoromethoxy)quinolin-4-yl)amino)ethyl)phenyl)methanesulfonamide]",4.1,6.2
"CS(=O)(=O)Nc1ccc(CCNc2cc(Cl)nc3cccc(OC(F)(F)F)c23)cc1 [Example 26, N-(4-(2-((2-chloro-5-(trifluoromethoxy)quinolin-4-yl)amino)ethyl)phenyl)methanesulfonamide]",0.15,0.23
"CS(=O)(=O)Nc1ccc(CCNc2ccnc3cc(OC(F)(F)F)ccc23)cc1 [Example 25, N-(4-(2-((7-(trifluoromethoxy)quinolin-4-yl)amino)ethyl)phenyl)methanesulfonamide]",1.9,9.6
"O=[N+]([O-])c1ccc(CCNc2cc(Cl)nc3ccc(F)cc23)cc1 [Example 14, 2-chloro-6-fluoro-N-(4-nitrophenethyl)quinolin-4-amine]",0.59,1.9
